The text below walks through data of patent publication US6441193B1, “Estrogen agonists/antagonists” (Pfizer Inc., priority 1995, dated 2002).

The subject of assay [1] is ventral prostate. The conditions noted are these: male rats; cited from earlier work.
Assay [2] has as its system prostate. The assay can be described thus: Effect on prostate weight (wet prostate weight after 14 days of daily subcutaneous injection). In kind it is in vivo, rat. The conditions noted are these: male Sprague-Dawley rats, s.c. daily for 14 days. As to the method: Male Sprague-Dawley rats, three months of age are administered by subcutaneous injection either vehicle (10% ethanol in water), estradiol (30 μg/kg), testosterone (1 mg/kg) or a compound of formula I daily for 14 days (n=6/group). After 14 days the animals are sacrificed, the prostate is removed and the wet prostate weight is determined. Mean weight is determined and statistical significance (p<0.05) is determined compared to the vehicle-treated group using Student's t-test.

For the compound `O=C(c1ccc(OCCN2CCCCC2)cc1)c1c(-c2ccc(O)cc2)sc2cc(O)ccc12` [raloxifene, 6-hydroxy-2-(4-hydroxyphenyl)-3-[4-(2-piperidinoethoxy)benzoyl] benzo[b] thiophene], the “effect on ventral prostate” value in assay [1] is “regression of the ventral prostate”. As for `C[C@]12CC[C@H]3[C@@H](CCC4=CC(=O)CC[C@@]43C)[C@@H]1CC[C@@H]2O` [Testosterone, testosterone], in assay [2] (testosterone 1 mg/kg), the “wet prostate weight compared to vehicle” value is given as “no effect”. As for `C[C@]12CC[C@@H]3c4ccc(O)cc4CC[C@H]3[C@@H]1CC[C@@H]2O` [estrogen, estradiol], in assay [2] (30 μg/kg), the “wet prostate weight compared to vehicle” value was “significantly reduces prostate weight”.
